Test results reported in US20140066365A1, “USE OF CALIXARENES ASSOCIATED WITH AN ANTIBIOTIC IN THE TREATMENT OF BACTERIAL INFECTIONS” (priority 2011, published 2014).
Converted amounts (≈) assume the structure as drawn. “And” between values parts separate entries of the source, which are not always exact repeats. Equal values may be shown once. Read-outs that look alike come from different tables or passages of the source.

Key:
[1] = tested on: Pseudomonas aeruginosa strain PaR3; experiment: MIC of the compounds used alone, microdilution in a liquid medium (CLSI); type: cell-based
Source text: (§1) The MICs of the antibiotics were previously defined for each strain, by the method of microdilution in a liquid medium (CLSI (Clinical and Laboratory Standards Institute), 2003).

[2] = tested on: cephalosporinase-hyperproducing strain of Escherichia coli (EcR2); experiment: as above; type: cell-based; conditions: Cx1 alone (first value of cell)
Source text: as §1

[3] = tested on: mucoid strain of Pseudomonas aeruginosa PaR5; experiment: as above; type: cell-based
Source text: as §1

[4] = tested on: Pseudomonas aeruginosa strain ATCC 27853 (wild type); experiment: as above; type: cell-based; conditions: P. aeruginosa ATCC 27853
Source text: as §1

[5] = tested on: ESBL-producing strain of Escherichia coli, having an associated resistance to the aminoglycosides (EcR3); experiment: as above; type: cell-based; conditions: Cx1 alone (first value of cell)
Source text: as §1

[6] = tested on: Staphylococcus aureus strain ATCC 29213 (wild type); experiment: as above; type: cell-based; conditions: S. aureus ATCC 29213
Source text: as §1

[7] = tested on: Escherichia coli strain ATCC 25922 (wild type); experiment: as above; type: cell-based; conditions: E. coli ATCC 25922
Source text: as §1

[8] = tested on: penicillinase-producing strain of Escherichia coli without associated resistance (EcR1); experiment: as above; type: cell-based; conditions: Cx1 alone (first value of cell)
Source text: as §1

[9] = tested on: MRSA strain without associated resistance (SaR1); experiment: as above; type: cell-based, Staphylococcus aureus; conditions: SaR1
Source text: as §1

[10] = tested on: MRSA strain having a resistance to the aminoglycosides and fluoroquinolones (SaR3); experiment: as above; type: cell-based, Staphylococcus aureus; conditions: SaR3
Source text: as §1

[11] = tested on: MRSA strain having a resistance to the aminoglycosides, fluoroquinolones, macrolides-lincosamides-synergistins and ofloxacin (SaR4); experiment: as above; type: cell-based, Staphylococcus aureus; conditions: SaR4
Source text: as §1

[12] = tested on: Pseudomonas aeruginosa strain PaR2; experiment: microbe, parasite or virus in culture; type: cell-based
Source text: as §1

[13] = tested on: EcR3: ESBL-Producing Escherichia coli; experiment: Antibiogram by the disk diffusion technique; type: cell-based
Description: The bacterial and antibiogramidentification is carried out by the VITEK 2 system (bioMerieux) and by the disk diffusion technique

[14] = tested on: SaR1: Meticillin-Resistant Staphylococcus aureus without Associated Resistance; experiment: Antibiogram, MIC by the VITEK 2 system; type: cell-based; conditions: SaR1; for CA-SFM Interpretation: Cc CA-SFM 2011; for EUCAST Interpretation: Cc EUCAST 2011; for Results: from MIC
Description: (§2) The bacterial and antibiogramidentification is carried out by the VITEK 2 system (bioMérieux)

[15] = tested on: SaR3: Meticillin-Resistant Staphylococcus aureus; experiment: Antibiogram by the disk diffusion technique; type: cell-based; conditions: for CA-SFM Interpretation: Cd CA-SFM 2011; for Diameter: Table E1; for Results: Table E1, against Dmin Dmax; for diameter in mm: Table E2
Description: (§3) The bacterial and antibiogramidentification is carried out by the VITEK 2 system (bioMérieux) and by the disk diffusion technique

[16] = tested on: PaR5: Pseudomonas aeruginosa; experiment: Antibiogram by the disk diffusion technique; type: cell-based
Description: as §3

[17] = tested on: SaR4: Meticillin-Resistant Staphylococcus aureus; experiment: Antibiogram, MIC by the VITEK 2 system; type: cell-based; conditions: SaR4; for CA-SFM Interpretation: Cc CA-SFM 2011; for EUCAST Interpretation: Cc EUCAST 2011; for MIC: Staphylococcus aureus, read-out: MIC
Description: as §3

[18] = tested on: EcR1: Penicillinase-Producing Escherichia coli without Associated Resistance; experiment: Antibiogram by the disk diffusion technique; type: cell-based
Description: 5.1 EcR1: Penicillinase-Producing Escherichia coli without Associated Resistance The bacterial and antibiogramidentification is carried out by the VITEK 2 system (bioMérieux) and by the disk diffusion technique.

[19] = MIC of the compounds used alone, microdilution in a liquid medium (CLSI); type: cell-based, Staphylococcus aureus; conditions: Staphylococcus aureus, MRSA; antibiotic alone (second value of cell); SaR4; read-out: MIC
Source text: as §1

[20] = tested on: PaR2: Pseudomonas aeruginosa; type: cell-based
Description: as §3

[21] = tested on: Escherichia coli, Staphylococcus aureus and Pseudomonas aeruginosa strains; experiment: Chessboard technique, summary statements over all strains and combinations tested; type: cell-based; conditions: strain not stated
Source text: 1.3. Procedure: Chessboard Technique
The same procedure is followed for the Cx1. […] Thus 64 ATB/Cx1 combinations are obtained.
The FIC (Fractional Inhibitory Concentration Index) value is defined by the following formula: […]
When FIC≦0.5, there is a synergistic effect between antibiotic A and antibiotic B.
When 0.5<FIC≦1, there is an additive effect between antibiotic A and antibiotic B.
When 1<FIC≦4, there is an indifferent effect between antibiotic A and antibiotic B.
When FIC>4, there is an antagonistic effect between antibiotic A and antibiotic B.
For each strain and each antibiotic/Cx1 combination, the experiments were repeated a minimum of 3 times.

[22] = tested on: SaR1: Meticillin-Resistant Staphylococcus aureus without Associated Resistance; experiment: Antibiogram, inhibition diameter (Table D1); type: cell-based; conditions: for Results: from diameter, against Dmin Dmax
Description: as §2

[23] = Cx1 alone (first value of cell)
[24] = Pseudomonas aeruginosa, antibiotic alone (second value of cell), read-out: MIC
[25] = Staphylococcus aureus, MRSA, antibiotic alone (second value of cell), read-out: MIC
[26] = antibiotic alone (second value of cell)

Molecule: para-guanidinoethylcalix[4]arene [Cx1]
- MIC [1, 23]: 32 µg/mL
- MIC mg/L [1, 23]: 32/32 mg/L
- Initial MICs [2]: 2 mg/L
- Initial MICs (mg/L) [2]: 2/2 mg/L
- MIC [3, 23]: 32 µg/mL
- MIC mg/L [3, 23]: 32/32 mg/L
- MIC [4, 23]: 32 µg/mL
- Initial MICs (mg/L), Cx1 ([4]; Cx1 alone): 32/32 mg/L and 32 mg/L
- Initial MICs [5]: 2 mg/L
- Initial MICs (mg/L) [5]: 2/2 mg/L
- Initial MICs [6, 23]: 8 mg/L
- Initial MICs (mg/L) [6, 23]: 8/8 mg/L
- Initial MICs (mg/L), Cx1 ([6]; Cx1 alone): 8 mg/L
- Initial MICs [7, 23]: 4 mg/L and 2 mg/L
- Initial MICs (mg/L) [7, 23]: 4/4 mg/L
- Initial MICs (mg/L), Cx1 ([7]; Cx1 alone): 4 mg/L
- Initial MICs [8]: 2 mg/L
- MIC [9, 23]: 8 µg/mL
- MIC [10, 23]: 8 µg/mL
- MIC mg/L [10, 23]: 8/8 mg/L
- MIC [11, 23]: 8 µg/mL
- MIC [12, 23]: 32 µg/mL

Molecule: C[C@@H]1O[C@@H]1P(=O)(O)O [Fosfomycin]
- CA-SFM Interpretation ([13]; Cd CA-SFM 2011): Susceptible
- CLSI Interpretation ([13]; Cd CLSI 2011): Susceptible
- Diameter ([13]; Table C1): 23 mm
- Results ([13]; Table C1, against Dmin Dmax): Susceptible
- diameter in mm ([13]; Table C2): 23 mm
- MIC [1, 24]: > 64 µg/mL
- MIC [3, 24]: 16 µg/mL
- MIC ([4]; Pseudomonas aeruginosa, ATCC27853, antibiotic alone (second value of cell), read-out: MIC): 16 µg/mL
- MIC ([6]; Staphylococcus aureus, ATCC29213, antibiotic alone (second value of cell), read-out: Initial MICs): 8 µg/mL
- CA-SFM Interpretation [14]: Susceptible
- EUCAST Interpretation [14]: Susceptible
- Results ([14]; Table D1): Susceptible
- MIC mg/L ([14]; Table D2): ≦8 mg/L
- MIC ([14]; Staphylococcus aureus, Table D1, read-out: MIC): ≤ 8 µg/mL
- CA-SFM Interpretation [15]: Susceptible
- Diameter [15]: 26 mm
- Results [15]: Susceptible
- diameter in mm [15]: 26 mm
- Diameter ([16]; PaR5, Table I1): 30 mm
- Results ([16]; PaR5, Table I1, against Dmin-Dmax): Susceptible
- diameter in mm ([16]; disk diffusion inhibition diameter, strain PaR5): 30 mm
- CA-SFM Interpretation ([16]; disk diffusion, PaR5, versus critical diameter CA-SFM 2011): Susceptible
- Results ([17]; Table F1, MIC): Resistant
- CA-SFM Interpretation ([17]; from MIC): Resistant
- EUCAST Interpretation ([17]; from MIC): Resistant
- MIC ([17]; Table F1): ≥ 64 µg/mL
- MIC ([17]; Table F2, MIC): ≥ 64 µg/mL
- MIC mg/L (diameter in mm) ([18]; EcR1, cells that print a diameter, Table A2): 24 mm
- CA-SFM Interpretation ([18]; EcR1, diameter against CA-SFM 2011 limits): Susceptible
- CLSI Interpretation ([18]; EcR1, diameter against CLSI 2011 limits): Susceptible
- Diameter ([18]; EcR1, disk diffusion, Table A1): 24 mm
- Results ([18]; EcR1, interpretation of the diameter against Dmin Dmax, Table A1): Susceptible
- MIC [19]: 128 µg/mL
- MIC [9, 25]: 2 µg/mL
- MIC [10, 25]: 16 µg/mL
- MIC [12, 24]: 64 µg/mL (≈ 464 µM)
- CA-SFM Interpretation ([20]; Cd CA-SFM 2011): Resistant
- Diameter ([20]; Table G1): 13 mm
- Results ([20]; Table G1, against Dmin-Dmax): Resistant
- diameter in mm ([20]; Table G2): 13 mm
- interaction between the antibiotic and Cx1 [21]: synergism
- Diameter [22]: 40 mm
- Results [22]: Susceptible

Molecule: CC1(C)S[C@@H]2[C@H](NC(=O)Cc3ccccc3)C(=O)N2[C@H]1C(=O)O [Penicillin G]
- Initial MICs [6, 26]: 1 mg/L
- CA-SFM Interpretation [14]: Resistant
- CLSI Interpretation ([14]; Cc CLSI 2011): Resistant
- EUCAST Interpretation [14]: Resistant
- MIC mg/L ([14]; Table D1): ≧0.5 mg/L
- Results ([14]; Table D1): Resistant
- MIC mg/L ([14]; Table D2): ≧0.5 mg/L
- CA-SFM Interpretation [15]: Resistant
- CLSI Interpretation ([15]; Cd CLSI 2011): Resistant
- EUCAST Interpretation ([15]; Cd EUCAST 2011): Resistant
- Diameter [15]: 26 mm
- Results [15]: Resistant
- diameter in mm [15]: 26 mm
- Results ([17]; Table F1, MIC): Resistant
- CA-SFM Interpretation ([17]; from MIC): Resistant
- CLSI Interpretation ([17]; from MIC, Cc CLSI 2011): Resistant
- EUCAST Interpretation ([17]; from MIC): Resistant
- MIC [9, 26]: 0.5 µg/mL
- MIC [10, 26]: 0.5 µg/mL
- MIC [11, 26]: 4 µg/mL
- Diameter [22]: 28 mm
- Results [22]: Resistant
